Assays:
BAY61-3606 + Luminespib = compound: COC1=C(C=C(C=C1)C2=CC3=NC=CN3C(=N2)NC4=C(C=CC=N4)C(=O)N)OC [BAY61-3606] + CCNC(=O)c1noc(-c2cc(C(C)C)c(O)cc2O)c1-c1ccc(CN2CCOCC2)cc1 [Luminespib] (partner 0.01 µM); experiment: relative viability (nuclei count vs DMSO), 5 days (fraction); higher = more cells survive
Procedure, shortened: (§1)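 Medians of duplicate plates are given as relative viability. That measure is the nuclei count in treated wells divided by the count in vehicle wells. Counts were taken on 4× images of lung cancer cell lines in 1536-well plates, 5 days after pin-tool dosing the day after seeding with one drug alone or a fixed anchor-drug dose plus five library-drug doses (not always all listed) in √10 steps.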

BAY61-3606 + Dasatinib = compound: COC1=C(C=C(C=C1)C2=CC3=NC=CN3C(=N2)NC4=C(C=CC=N4)C(=O)N)OC [BAY61-3606] + Cc1nc(Nc2ncc(C(=O)Nc3c(C)cccc3Cl)s2)cc(N2CCN(CCO)CC2)n1 [Dasatinib] (partner 0.075 µM); experiment: as above
Procedure, shortened: as §1

Row | Cell Line | relative viability (BAY61-3606 + Luminespib; first compound 0.02 µM) | relative viability (BAY61-3606 + Luminespib; first compound 0.06325 µM) | relative viability (BAY61-3606 + Luminespib; first compound 0.2 µM) | relative viability (BAY61-3606 + Luminespib; first compound 0.6325 µM) | relative viability (BAY61-3606 + Luminespib; first compound 2 µM) | relative viability (BAY61-3606 + Dasatinib; first compound 0.02 µM) | relative viability (BAY61-3606 + Dasatinib; first compound 0.06325 µM) | relative viability (BAY61-3606 + Dasatinib; first compound 0.2 µM) | relative viability (BAY61-3606 + Dasatinib; first compound 0.6325 µM) | relative viability (BAY61-3606 + Dasatinib; first compound 2 µM)
1 | NCI-H2342 | 0.895 | 0.719 | 0.711 | 0.751 | 0.797 | 0.297 | 0.32 | 0.319 | 0.311 | 0.367
2 | HCC-15 | 0.412 | 0.302 | 0.303 | 0.263 | 0.377 | 0.696 | 0.59 | 0.592 | 0.551 | 0.483
3 | A-427 | 0.842 | 0.928 | 0.86 | 0.965 | 0.808 | 0.722 | 0.681 | 0.673 | 0.765 | 0.647
4 | NCI-H2347 | 0.373 | 0.362 | 0.386 | 0.658 | 0.412 | 0.328 | 0.3 | 0.283 | 0.332 | 0.319
5 | NCI-H1755 | 0.367 | 0.495 | 0.397 | 0.433 | 0.384 | 0.415 | 0.412 | 0.432 | 0.397 | 0.317
6 | SK-LU-1 | 0.182 | 0.224 | 0.188 | 0.2 | 0.173 | 0.2 | 0.148 | 0.148 | 0.169 | 0.152
7 | NCI-H1975 | 0.18 | 0.199 | 0.268 | 0.247 | 0.119 | 0.378 | 0.31 | 0.367 | 0.282 | 0.253
8 | HCC-44 | 1.1 |  | 1.17 | 1.24 | 0.997 |  |  |  |  | 
9 | NCI-H1793 | 0.177 | 0.159 |  | 0.163 | 0.182 | 0.365 | 0.357 |  | 0.32 | 0.427
10 | NCI-H596 | 0.941 | 1.14 | 0.929 | 1.3 | 0.62 | 0.644 | 0.481 | 0.618 | 0.594 | 0.489
11 | PC-3 [JPC-3] |  | 0.81 | 0.746 | 0.659 | 0.709 |  | 1.07 | 1 | 0.928 | 0.862
12 | HCC-366 |  |  |  |  |  | 0.56 | 0.548 | 0.626 | 0.597 | 0.439
13 | NCI-H1623 | 0.604 | 0.439 | 0.422 | 0.607 | 0.52 | 0.556 | 0.557 | 0.533 | 0.522 | 0.501
14 | LCLC-103H | 0.989 | 1.06 | 0.969 | 1.06 | 0.737 | 0.537 | 0.407 | 0.465 | 0.55 | 0.446
15 | CAL-12T | 0.49 | 0.439 | 0.209 | 0.789 | 0.187 | 0.495 | 0.383 | 0.404 | 0.479 | 0.131
16 | NCI-H23 | 0.212 | 0.213 | 0.214 | 0.232 | 0.207 | 0.801 | 0.713 | 0.645 | 0.606 | 0.677
17 | NCI-H1651 | 1.03 | 0.869 | 0.664 | 1.13 | 0.603 | 0.379 | 0.459 | 0.387 | 0.32 | 0.318

Row | Cell Line | relative viability (BAY61-3606 + Luminespib; first compound 0.02 µM) | relative viability (BAY61-3606 + Luminespib; first compound 0.06325 µM) | relative viability (BAY61-3606 + Luminespib; first compound 0.2 µM) | relative viability (BAY61-3606 + Luminespib; first compound 0.6325 µM) | relative viability (BAY61-3606 + Luminespib; first compound 2 µM) | relative viability (BAY61-3606 + Dasatinib; first compound 0.02 µM) | relative viability (BAY61-3606 + Dasatinib; first compound 0.06325 µM) | relative viability (BAY61-3606 + Dasatinib; first compound 0.2 µM) | relative viability (BAY61-3606 + Dasatinib; first compound 0.6325 µM) | relative viability (BAY61-3606 + Dasatinib; first compound 2 µM)
18 | BEN | 0.464 | 0.349 | 0.253 | 0.321 | 0.407 | 0.342 | 0.309 | 0.296 | 0.318 | 0.321
19 | EMC-BAC-2 | 1.21 | 1.15 | 1.17 | 1.25 | 0.904 | 0.359 | 0.323 | 0.353 | 0.298 | 0.276
20 | LXF-289 | 0.772 | 0.578 | 0.648 | 0.551 | 0.561 | 0.261 | 0.205 | 0.187 | 0.187 | 0.129
21 | ABC-1 | 0.985 | 0.549 | 0.529 | 0.81 | 0.338 | 0.658 | 0.653 | 0.557 | 0.553 | 0.476
22 | NCI-H358 | 0.428 | 0.249 | 0.322 | 0.289 | 0.205 | 0.17 | 0.158 | 0.149 | 0.179 | 0.138
23 | NCI-H1355 | 0.736 | 0.657 | 0.694 | 0.727 | 0.413 | 0.68 | 0.627 | 0.65 | 0.662 | 0.67
24 | NCI-H3122 | 0.121 | 0.0764 | 0.0868 | 0.099 | 0.0933 | 0.838 | 0.882 | 0.736 | 0.897 | 0.691
25 | NCI-H2009 | 1.08 | 1.04 | 0.976 | 0.992 | 0.902 | 0.318 | 0.288 | 0.281 | 0.233 | 0.142
26 | NCI-H520 | 0.216 | 0.237 | 0.258 | 0.231 | 0.223 | 0.191 | 0.193 | 0.216 | 0.184 | 0.151
27 | SW 1573 | 0.192 | 0.204 | 0.197 | 0.214 | 0.204 | 0.535 | 0.416 | 0.43 | 0.373 | 0.203
28 | HARA | 0.672 | 0.462 | 0.681 | 0.682 | 0.352 | 0.168 | 0.233 | 0.323 | 0.245 | 0.28
29 | NCI-H2126 | 0.964 | 0.916 | 0.869 | 1.07 | 0.731 | 0.676 | 0.599 | 0.573 | 0.567 | 0.356
30 | NCI-H1563 | 0.528 | 0.558 | 0.531 | 0.54 | 0.502 | 0.477 | 0.406 | 0.508 | 0.421 | 0.428
31 | NCI-H1915 | 0.777 | 0.86 | 0.686 | 0.731 | 0.369 | 0.313 | 0.312 | 0.344 | 0.314 | 0.272
32 | ChaGo-K-1 | 0.611 | 0.606 | 0.587 | 0.554 | 0.436 | 0.566 | 0.547 | 0.591 | 0.548 | 0.596
33 | PC-14 | 0.191 |  | 0.171 | 0.173 | 0.129 | 0.269 | 0.249 | 0.264 | 0.287 | 0.176
34 | COR-L23 | 0.672 | 0.728 | 0.674 | 0.806 | 0.372 | 0.609 | 0.548 | 0.504 | 0.467 | 0.316

Reference: the supplement of paper PMC10307832
